Experimental data reported in US12612410B2 (CHILDREN'S HOSPITAL MEDICAL CENTER, priority 2020, dated 2026).

System: MOLM14 (D835Y) cells
Test: Combination drug screening with Venetoclax in MOLM14 (D835Y) cells
Assay type: cell-based
Design: key to Sum Excess HSA: negative = synergy, positive = antagonism with Venetoclax; relative score
Details: 10 × 10 dataset; for Sum Excess HSA: combination with Venetoclax, 48 hours
Method: Combination drug therapy has the potential to produce enhanced effects with lower side effects not obtained using either agent alone, or beyond the additive effect of the different concentrations of the two different agents. To determine whether enhanced effects are observed in different drug combinations in the setting of FLT3 resistance, combination drug screening was performed as previously described (Mathews-Griner, L. A. et al., Proc. Nat. Acad. Sci., 2014, 111:2439-2454; Lin, G. L. et al., Sci. Trans. Med., 2019, 11:eaaw0064). Briefly, 10 nL of compounds were acoustically dispensed into 1536-well white polystyrene tissue culture-treated plates with an Echo 550 acoustic liquid handler (Labcyte). MOLM14 (D835Y) Cells were then added to compound-containing plates at a density of 500-cells/well in 5 μL of medium. A 10-point custom concentration range was used for all listed drugs. Plates were incubated for 48 hours at standard incubator conditions covered by a stainless steel gasketed lid to prevent evaporation. 48 h post compound addition, 3 μL of Cell Titer Glo (Promega) were added to each well and plates were incubated at room temperature for 15 minutes with the stainless-steel lid in place. Luminescence readings were taken using a Viewlux imager (PerkinElmer) with a 2 second exposure time per plate.
The sum excess HSA scores for Compounds 25, 31, 35, 50, 51, 80, 82, 97, 118, and 119 in Table 28 are used herein to quantitate drug interactions for enhanced pharmacological effects in the MOLM14 (D835Y) cell line. This is a FLT3-ITD cell line that harbors a FLT3 resistance mutation in the tyrosine kinase domain at position 835 (D835Y). More information on excess HSA scores can be found in Vlot, Anna H. C. et al., Drug Discovery Today, 2019, 24(12):2286-2298. […] However, different methodologies may yield different numerical scores, and different definitions of what constitutes a deviation from mere additivity vs true drug synergy. Table 28 summarizes the combination results of Compounds 25, 31, 35, 50, 51, 80, 82, 97, 118, and 119 with Venetoclax. A large negative sum excess HSA score indicates profound synergism with Venetoclax, whereas a positive excess HSA score indicates antagonism with Venetoclax in certain drug combinations.
The degree to which combination therapy has to potential to produce enhanced effects with lower side effects not obtained using either agent alone, or beyond the additive effect of the different concentrations of the two different agents depends on the nature of the drugs used in the combination, and the specific doses/concentrations at which they are ultimately used in the therapeutic regimen. A negative excess sum HSA score illustrates that the drug combination is better than either drug alone (at the concentrations being studied), and the sum excess HSA score is a measurement of the overall deviation from additivity that is observed across the entire matrix of concentrations studied. […] However, the utility in certain drug combinations vs others should not be distinguished based on cutoffs between excess sum HSA scores, because the score itself is only a relative indicator that is completely dependent on experimental design and is not an absolute number. Furthermore, the concept of what constitutes clinically meaningful drug synergy is something that is still being debated, not only between pharmacologists and physicians, but amongst pharmacologists themselves. The data in Table 28 illustrate that the nature of the combined effect is dependent on the characteristics of each individual compound, as not every compound produced a synergistic interaction in combination with Venetoclax.

| Compound | Sum Excess HSA | Interaction with Venetoclax |
| --- | --- | --- |
| CC(O)(c1cn2c(-c3cccc(N[C@H]4CNCC[C@@H]4F)n3)cnc2cn1)C(F)(F)F (single isomer, unassigned) [Compound 80] | −261.7 | – |
| CC(O)(c1cn2c(-c3cccc(N[C@H]4CNCC[C@@H]4F)n3)cnc2cn1)C(F)(F)F (single isomer, unassigned) [Compound 82] | −155.8 | – |
| FC(F)c1cn2c(-c3cccc(N[C@H]4CNCC[C@@H]4F)n3)cnc2cn1 [Compound 25, 6-(6-(difluoromethyl)imidazo[1,2-a]pyrazin-3-yl)-N-((3S,4S)-4-fluoropiperidin-3-yl)pyridin-2-amine] | −834.6 | Synergistic |
| CC(C)(O)c1cn2c(-c3cccc(N[C@H]4CNCC[C@@H]4F)n3)cnc2cn1 [Compound 31, 2-(3-(6-(((3S,4S)-4-fluoropiperidin-3-yl)amino)pyridin-2-yl)imidazo[1,2-a]pyrazin-6-yl)propan-2-ol] | −150.3956 | – |
| CC(C)(O)c1cn2c(-c3nc(N[C@H]4CNCC[C@@H]4F)c(F)cc3F)cnc2cn1 [Compound 35, 2-(3-(3,5-difluoro-6-(((3S,4S)-4-fluoropiperidin-3-yl)amino)pyridin-2-yl)imidazo[1,2-a]pyrazin-6-yl)propan-2-ol] | 386.4 | Antagonistic |
| F[C@H]1CNC[C@@H]1Nc1cccc(-c2cnc3cnc(C4CC4)cn23)n1 [Compound 50, 6-(6-cyclopropylimidazo[1,2-a]pyrazin-3-yl)-N-((3S,4S)-4-fluoropyrrolidin-3-yl)pyridin-2-amine] | −552 | – |
| F[C@H]1CCNC[C@@H]1Nc1cccc(-c2cnc3cnc(C4CC4)cn23)n1 [Compound 51, 6-(6-cyclopropylimidazo[1,2-a]pyrazin-3-yl)-N-((3S,4S)-4-fluoropiperidin-3-yl)pyridin-2-amine] | −644.5 | – |
| O=S1(=O)CCCN1c1cn2c(-c3cccc(N[C@H]4CNCC[C@@H]4F)n3)cnc2cn1 [Compound 97, 2-(3-(6-(((3S,4S)-4-fluoropiperidin-3-yl)amino)pyridin-2-yl)imidazo[1,2-a]pyrazin-6-yl)isothiazolidine 1,1-dioxide] | −171.7 | – |
| O=C1NCCN1c1cn2c(-c3cccc(N[C@H]4CNCC[C@@H]4F)n3)cnc2cn1 [Compound 118, 1-(3-(6-(((3S,4S)-4-fluoropiperidin-3-yl)amino)pyridin-2-yl)imidazo[1,2-a]pyrazin-6-yl)imidazolidin-2-one] | −550.9 | – |
| O=C1CCCN1c1cn2c(-c3cccc(N[C@H]4CNCC[C@@H]4F)n3)cnc2cn1 [Compound 119, 1-(3-(6-(((3S,4S)-4-fluoropiperidin-3-yl)amino)pyridin-2-yl)imidazo[1,2-a]pyrazin-6-yl)pyrrolidin-2-one] | −762 | – |
